Data: patent US20250268938A1, “SMALL MOLECULE-REGULATED CELL SIGNALING EXPRESSION SYSTEM” (Outpace Bio, Inc., priority 2021, published 2025)

Key:
[1] = system: Jurkat cells; assay: Kill switch percent killing in Jurkat cells (flow cytometry); format: cell-based
Procedure: Kill switch-positive cells (le5) were incubated for 24-48 hours with inducer drug before staining and analysis for death. Conditions were normalized to contain about 50% transduction positive (+) cells by adding untransduced Jurkat or primary T cells in order to get accurate statistics on death.
Flow cytometry was performed on a Ze5 cytometer (Biorad). To determine expression of markers, between 1×10^5-2×10^5 total cells were transferred to a U-bottom 96 well culture dish (Corning). Cells were washed twice with Cell Staining Buffer (BioLegend), then stained with Zombie Violet (1:1000, BioLegend) and ROR1-FC for ROR1-specific CAR constructs (20 min at room temperature). Cells were washed twice in Cell Staining Buffer, then stained with Annexin V-PE (BD) in 1× Annexin V Binding Buffer (BD) for 15 min at room temperature. After staining, cells were washed once with Annexin V Binding Buffer, resuspended in AnneinV Binding Buffer and immediately analyzed.
(§1) Flow cytometry data was analyzed using FlowJo 10 (Tree Star). Percent killing was calculated by gating on live cells, then calculating 100*((percent GFP positive DMSO condition)−(percent GFP positive drug condition))/(percent GFP positive DMSO condition).
We first tested for drug-induced death of Jurkat cells by fusing NS3a and DNCR2 separately to the catalytic domain of caspase-9 (NCDC). The small molecule inducible homodimer FKBP-F36V (iCasp9), which is dimerized by AP1903 (rimiducid) and the inducible heterodimer FKBP/rapamycin/FRB dimer (rapaCasp9) were used as controls. Briefly, Jurkat cells expressing NCDC, iCasp9, or rapaCasp9 were exposed to danoprevir, rimiducid or rapamycin, respectively, for 24 hours and analyzed by flow cytometry with gating set to measure killing in the top about 10% of cells expressing the highest amount of the GFP kill switch transduction marker.
To evaluate the kill switch designs of FIG. 8A, constructs were expressed in Jurkat cells, treated with 500 nM danoprevir (DNCR2-casp-9) or 500 nM grazoprevir (GNCR1-casp-9) and cell death measured by percent killing as described herein above.
The miniaturized versions of DNCR2, D1 and D9, were fused to caspase-9 and co-expressed in Jurkat cells with homo-oligomerized NS3a scaffolds. We also evaluated a CAR construct that included an additional copy of NS3a (CAR-2×NS3a). The original DNCR2-casp-9 was used as a control. Jurkat cells expressing different DNCR2 variants fused to caspase-9 along with CAR-NS3a, CAR-NS3a-NS3a, or dimer-NS3a were treated with 500 nM danoprevir and cell death was measured by percent killing as described herein above.
(§2) We explored the ability of other human killing domains to induce cell death in Jurkat and primary human T cells. We fused FKBP-F36V to a panel of killing domains that included caspase-9 D330A, caspase-9, caspase-1, caspase-4, and the necroptosis-inducing protein RIPK3. Briefly, Jurkat and primary human CD4+/CD8+ T cells expressing FKBP(F36V)-fused killing domains were treated with 10 nM rimiducid and cell death was measured by percent killing as described herein above.

[2] = system: primary human CD4+/CD8+ T cells; assay: Kill switch percent killing in primary human T cells; format: cell-based; details: 10 nM rimiducid, range of transduction levels
Procedure: Pre-selected, cryopreserved primary human CD4 T cells from normal donors were obtained from Bloodworks (Seattle WA). Human T cells were cultured in OpTmizer medium (Thermo Fisher) supplemented with Immune Cell Serum Replacement (Thermo Fisher), 2 mM L-glutamine (Gibco), 2 mM Glutamax (Gibco), 200 IU/ml IL-2 (R&D systems), 120 IU/ml IL-7 (R&D systems), and 20 IU/ml IL-15 (R&D systems).
For lentiviral transduction, T cells were stimulated with a 1:100 dilution of T cell TransAct (Miltenyi) for 30 hours. Virus was then added to T cells for 18-24 hours. […]
Flow cytometry was performed on a Ze5 cytometer (Biorad). […] After staining, cells were washed once with Annexin V Binding Buffer, resuspended in AnneinV Binding Buffer and immediately analyzed.
as §1
as §2, with “We fused FKBP-F36V to a panel of killing domains that included caspase-9 D330A, caspase-9, caspase-1, caspase-4, and the necroptosis-inducing protein RIPK3.” left out

[3] = system: Jurkat CD3ζ-signaling reporter line; assay: CAR signaling (tdTomato) in Jurkat CD3ζ-signaling reporter line; format: cell-based; details: for CAR signaling, tdTomato intensity, drug switch: grazoprevir at time zero, washed and danoprevir at 48 hours, tracked additional 72 hours
Procedure: (§3) For IncuCyte analysis of CD3ζ-signaling tdTomato reporter line with CARs and DNCR2-casp-9 kill switch (with EGFP transduction maker), 5e4 CAR+ cells were plated per well in poly-D-Lys coated plate in which 5e4 Jeko1 cells were previously seeded. Drug (e.g., grazoprevir, danoprevir) was added to given final concentration and cells were imaged for tdTomato and EGFP signal at 20×, 800 msec exposure, 4 images/well, every 3 hours. Cells were removed from the Incucyte plate to a v-bottom plate for 2 washes in PBS at 48 hours when the drug condition was changed.
(§4) Coculture for flow analysis of the CAR/kill switch constructs was setup 24 hours before analysis. CAR-positive cells (le5 cells; part I and part II positive, i.e., ROR1+ and EGFRt+ (part II marker)) were mixed with le5 Jeko1 cells and drug. Cells were analyzed for ROR1, EGFRt ([…]), tdTomato, EGFP, and viability as described hereinbelow.
(§5) To evaluate the use of two drug inputs to control two different signaling outputs, we used a Jurkat cell CD3ζ-signaling reporter line expressing the red fluorescent protein tdTomato to track CAR signaling, and the loss of the transduction marker (EGFP) of the DNCR2-caspase-9 construct to track Jurkat cell death.
(§6) We tested the ability to switch between CAR signaling and induction of apoptosis over time in an IncuCyte assay. Briefly, the CD3ζ-signaling reporter line expressing the dual-function GNCR1-CAR/DNCR2-casp9 was mixed 1:1 with Jeko1 cells and treated with 500 nM grazoprevir or danoprevir, or DMSO. Over a period of 48 hours, CAR signaling was tracked by tdTomato intensity and drug-induced cell death (i.e., activation of the safety switch) was monitored by tracking the transduction marker EGFP intensity.
(§7) We then tested the ability to switch from induction of CAR signaling with grazoprevir to induction of apoptosis with danoprevir. Briefly, CAR signaling was activated by grazoprevir treatment at time zero. After 48 hours, the cells were washed and treated with danoprevir. CAR signaling (tdTomato intensity) and cell viability (EGFP intensity) were tracked over an additional 72-hour period.

[4] = system: Jurkat CD3ζ-signaling reporter line; assay: Drug-induced cell death (loss of EGFP transduction marker) in Jurkat CD3ζ-signaling reporter line; format: cell-based
Procedure: as §3, §4
Percent killing was calculated by gating on live cells, then calculating 100*((percent GFP positive DMSO condition)−(percent GFP positive drug condition))/(percent GFP positive DMSO condition).
as §5, §6, §7

[5] = system: danoprevir/NS3a complex; details: cited from earlier work
[6] = system: CD69 expression in CAR expressing Jurkat cells; assay: Induction of CD69 expression in CAR expressing Jurkat cells co-cultured with Jeko1 cells (flow cytometry); format: cell-based; details: conventional single-chain ROR1-CAR Jurkat cells with Jeko1 cells; 500 nM danoprevir
Procedure: NS3a-based regulated CARs were evaluated using lentiviral transduction of T cells and flow cytometry analysis. The CARs evaluated are specific for the ROR1 antigen expressed on the target cell line Jeko1. The Jurkat and Jeko1 cell lines were obtained from American Type Culture Collection (Manassas, VA) and maintained in RPMI 1640 media with Glutamax (Gibco) containing 10% fetal calf serum (Gibco). For lentiviral transduction, Jurkat cells were incubated with lentivirus in complete media plus LentiBOOST at the manufacturers recommended concentration (Sirion Biotech). Eighteen hours after transfection, lentivirus and LentiBOOST were diluted by addition of 1 volume fresh media.
For flow analysis of induction of CD69 expression, Jurkat cells were mixed 1:1 with Jeko1 cells or Jeko1-ROR1-KO cells. Drug was added to a final concentration of 500 nM. Cultures were incubated with drug for 24 hours before flow analysis for surface markers.
Flow cytometry of CAR experiments was performed on a Ze5 cytometer (Biorad). […] Flow cytometry data was analyzed using FlowJo 10 (Tree Star).
The three NS3a-based regulated CARs described hereinabove with reference to FIG. 1B were evaluated in the Jurkat cell line. […] CD69 expression, a T cell activation marker, was detected by flow cytometry, gating on live CD3+/ROR1+ cells.

[7] = IncuCyte, over 48 hours, GNCR1-CAR/DNCR2-casp9 cells 1:1 with Jeko1, 500 nM drug

## RIPK3: FKBP-F36V fused to the necroptosis-inducing protein RIPK3
[1]; Jurkat cells, 10 nM rimiducid, range of transduction levels
  percent killing, FKBP(F36V)-fused killing domains: not able to induce cell death
[2]
  percent killing, FKBP(F36V)-fused killing domains: not able to induce cell death

## C=C[C@@H]1C[C@]1(NC(=O)[C@@H]1C[C@@H]2CN1C(=O)[C@H](C(C)(C)C)NC(=O)O[C@@H]1C[C@H]1CCCCCc1nc3ccc(OC)cc3nc1O2)C(=O)NS(=O)(=O)C1CC1.O [grazoprevir]
[3]; [7]
  CAR signaling, tdTomato intensity: only activated
[3]; dual-function GNCR1-CAR/DNCR2-casp-9, 500 nM drug, flow cytometry
  CAR signaling, tdTomato gMFI: activated
[3]
  CAR signaling, tdTomato intensity, drug switch: increases
[4]; 500 nM drug
  effect on Jurkat cells expressing a conventional CAR with DNCR2-casp-9: no effect

## CC(C)(C)OC(=O)N[C@H]1CCCCC/C=C\[C@@H]2C[C@@]2(C(=O)NS(=O)(=O)C2CC2)NC(=O)[C@@H]2C[C@@H](OC(=O)N3Cc4cccc(F)c4C3)CN2C1=O [danoprevir, (2R,6S,12Z,13aS,14aR,16aS)-14a-[(Cyclopropylsulfonyl)carbamoyl]-6-({[(2-methyl-2-propanyl)oxy]carbonyl}amino)-5,16-dioxo-1,2,3,5,6,7,8,9,10,11,13a,14,14a,15,16,16a-hexadecahydrocyclopropa[e]pyrrolo[1,2-a][1,4]diazacyclopentadecin-2-yl 4-fluoro-1,3-dihydro-2H-isoindole-2-carboxylate]
[3]
  CAR signaling, tdTomato intensity, drug switch: declines
[4]; 500 nM drug
  effect on Jurkat cells expressing a conventional CAR with DNCR2-casp-9: no effect
[4]; GNCR1-CAR/DNCR2-casp-9 system, 500 nM drug, loss of EGFP-positive population relative to DMSO
  percent killing (safety-switch): triggered
[4]; [7]
  cell viability, EGFP intensity: decreased cell viability
[4]; danoprevir added at 48 hours, with or without previous grazoprevir treatment
  cell viability, EGFP signal, drug switch: began to drop
[1]; NS3a-casp-9/DNCR2-casp-9 (NCDC), drug titration, 24 hours, top about 10% GFP-expressing Jurkat cells
  percent killing, two-chain direct dimerization design NCDC: modest killing

## DNCR2: danoprevir/NS3 complex reader polypeptide (SSDEEEARELIERAKEAAERAQEAAERTGDPRVRELARELKRLAQEAAEEVKRDPSSSD)
[5]
  affinity for the danoprevir/NS3a complex: high affinity

B1: Conventional CAR: conventional, single-chain ROR1-CAR (protein)
chain: CPPCPMFWVLVVVGGVLACYSLLVTVAFIIFWVKRGRKKLLYIFKQPFMRPVQTTQEEDGCSCRFPEEEEGGCELRVKFSRSADAPAYQQGQNQLYNELNLGRREEYDVLDKRRGRDPEMGGKPRRKNPQEGLYNELQKDKMAEAYSEIGMKGERRRGKGHDGLYQGLSTATKDTYDALHMQALPPR
[6]
  CD69 expression, regulation in response to danoprevir: no significant regulation
